System: human γ (Huγ) mRNA in K562 cells
Test: γ globin mRNA induction in K562 cells by RNase protection assay
Assay type: cell-based
Conditions: K562
Experimental: Cell Culture. K562 cells were grown in suspension cultures in RPMI-1640 containing 10% fetal bovine serum, penicillin (100 U/ml) and streptomycin (0.1 mg/ml in a humidified incubator at 37° C. in a 5%CO2/95% air atmosphere. The following experimental conditions were analyzed in triplicate with 2×10^6 cells per well: an untreated control, ZL dissolved in 0.1% dimethylsulfoximide (DMSO) at final concentrations of […], HU at […] and two positive controls hemin (50 mM) and sodium butyrate (NB) 2 mM. The K562 cells were induced for 72 hours then RNA isolated for further analysis. Cell viability was completed by 2% trypan blue exclusion at timnes 0 and 72 hours.
RNA Isolation. RNA was isolated using RNA Stat-60 (TEL-TEST “B”, Inc., Friendswood, Tex.) according to the manufacturer's instructions. In brief, cell pellets will be suspended in RNA Stat-60 (1 ml) and chloroform (200 μl), and the RNA extracted and precipitated with isopropanol.
RNase Protection Analysis. MRNA levels will be quantitated by RNase protection assay (RPA) with probes designed to yield protected fragments for human γ (Huγ)and the internal control glyceraldehydes-3-phosphate dehydrogenase (GAPD). Huγ mRNA levels were normalized to that of GAPD and compared to the untreated K562 cells. (Zar: Statistical Analysis, Englewood)
Several pharmacological hemoglobin F inducers such as HU, 5-azacytidine, erythropoietin, didox, and butyrate alter γ gene expression in culture. The induction of γ gene activity in culture is a good indicator of potential clinical usefulness. Therefore the capability of ZL to induce γ gene activity at the mRNA level was tested. K562 cells were cultured in ZL from 0 to 100 μM or HU (50μ to 100 μM) for 48 hours. Total cellular RNA was analyzed by RPA for γ mRNA levels. An increase in γ mRNA for ZL at 20 μM with a maximal response at 75 μM (FIG. 4A) was observed. The level of γ gene mRNA synthesis was quantitated relative to the internal control, CAPD. […] K562 cell viability was decreased 10% when measured using trypan blue exclusion at 75 μM and 100 μM concentrations for both ZL and HU. The level of γ gene induction was 3.9 fold and 10-fold for the positive controls NB and hemin, respectively.

Molecule	level of γ gene induction (positive control NB 2 mM) [fold]	level of γ gene induction (positive control hemin (50 µM)) [fold]
CCCC(=O)[O-].[Na+] [NB, sodium butyrate]	3.9	
hemin		10

From patent publication US7026344B2, “Treating sickle cell disease” (priority 2000, dated 2006)
